Experiment [1] deals with Cathepsin S (Homo sapiens, UniProt P25774). The experiment can be described thus: Cathepsin S inhibition assay (fluorogenic peptide substrate). The following applies: Table II, compounds of Formula I; read-out: Ki Cat. S. It is filed as biochemical. As for the experimental part: “Inhibition constant”, Ki, is the dissociation constant of the enzyme-inhibitor complex, or the reciprocal of the binding affinity of the inhibitor to the enzyme. […] The inhibited rates are then fit by nonlinear regression to the following equation: […]
The assumption being made for the classical inhibition described above is that the free inhibitor concentration is equal to the total inhibitor concentration.
Kinetic measurements are performed in a total reaction volume of 30 μl in 384-well microtiter plates. […] The reactions are initiated by adding the substrate, acetyl-histidine-proline-valine-lysine-amino carbamoyl coumarin, to a final concentration of 50 μM. The rate of substrate hydrolysis is measured by monitoring the increase in fluorescence at an excitation wavelength of 380 nm and an emission wavelength of 450 nm that results from cleavage of the aniline bond in the substrate by the enzyme.

In experiment [2] the target is T1, Cathepsin K (Homo sapiens, UniProt P43235).
T1 sequence (P43235 115-329): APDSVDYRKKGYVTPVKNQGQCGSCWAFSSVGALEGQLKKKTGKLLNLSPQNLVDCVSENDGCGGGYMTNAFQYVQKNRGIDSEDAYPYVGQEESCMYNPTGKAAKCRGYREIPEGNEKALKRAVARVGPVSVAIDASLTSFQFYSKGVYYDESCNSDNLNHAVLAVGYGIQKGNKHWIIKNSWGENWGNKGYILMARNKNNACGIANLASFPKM
The experiment can be described thus: Cathepsin K inhibition assay (fluorogenic peptide substrate); selectivity ratio vs cathepsin S. It is filed as biochemical. The following applies: ratio of cathepsin K inhibition constant to cathepsin S inhibition constant; Table II. On the procedure:
The optimal substrate for cathepsin K, acetyl-lysine-histidine-proline-lysine-amino carbamoyl coumarin, was identified from screening a combinatorial library of fluorogenic peptide substrates (Harris, J. L., B. J. Backes, et al., Proc Natl Acad Sci USA 2000, 97(14), 7754-9). Kinetic measurements are performed in a total reaction volume of 30 μl in 384-well microtiter plates. […] The reactions are initiated by adding the substrate, acetyl-lysine-histidine-proline-lysine-amino carbamoyl coumarin, to a final concentration of 40 μM. The rate of substrate hydrolysis is measured by monitoring the increase in fluorescence at an excitation wavelength of 380 nm and an emission wavelength of 450 nm that results from cleavage of the aniline bond in the substrate by the enzyme. The apparent inhibition constants for the compounds are determined from the enzyme progress curves ([…]. Elrod, et al., Anal Biochem 2000, 286(1), 45-50) and are then used to calculate the inhibition constants for competitive inhibitors. Selectivity for cathepsin S in the presence of cathepsin isozymes was determined by the ratio of the cathepsin isozyme inhibition constant of a compound of the present invention to the cathepsin S inhibition constant of the same compound.

Structures are written as SMILES. Where only a bound is given, the exact number is not on record here.

The text below walks through data of patent publication US7109243B2 (IRM LLC, priority 2003, dated 2006).

What is called Ki is a measure of affinity in units of concentration, obtained from inhibition or displacement.

Cathepsin S, sequence (P25774 115-331, species assumed): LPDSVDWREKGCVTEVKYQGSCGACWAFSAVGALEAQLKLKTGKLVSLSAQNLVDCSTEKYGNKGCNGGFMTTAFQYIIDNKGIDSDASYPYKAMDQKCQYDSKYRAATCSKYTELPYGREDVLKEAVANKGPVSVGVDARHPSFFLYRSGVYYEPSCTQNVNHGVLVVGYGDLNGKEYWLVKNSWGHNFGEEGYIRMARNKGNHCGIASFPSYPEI

As to `COc1ccc(NCCNC(=O)[C@H](Cc2ccccc2)NC(=O)c2cccc(C)c2Cl)cc1` [Compound 16, (S)-2-Chloro-N-{1-[2-(4-methoxy-phenylamino)-ethylcarbamoyl]-2-phenyl-ethyl}-3-methyl-benzamide], in experiment [1], the Ki is less than 1000 nM. In addition, the “Selectivity for Cat. S over Cat. K” value in experiment [2] is on record as “+ (+, >10)”.
As for `COc1ccc(CC(=O)NC(CC2CCCCC2)C(=O)NCCNc2ccc(OC(F)(F)F)cc2)cc1` (centres unmarked) [Compound 17, 3-Cyclohexyl-2-[2-(4-methoxy-phenyl)-acetylamino]-N-[2-(4-trifluoromethoxy-phenylamino)-ethyl]-propionamide], the Ki in experiment [1] is less than 100 nM. In addition, in experiment [2], the “Selectivity for Cat. S over Cat. K” value was “++ (++, >100)”.
In the case of `COc1ccc(NCCNC(=O)[C@H](Cc2ccc(Oc3cc(Cl)cc(Cl)c3)cc2)NC(=O)c2cccc(C)c2)cc1` [Compound 18, (S)-N-{2-[4-(3,5-Dichloro-phenoxy)-phenyl]-1-[2-(4-methoxy-phenylamino)-ethylcarbamoyl]-ethyl}-3-methyl-benzamide], the Ki in experiment [1] was less than 10000 nM. Also, the “Selectivity for Cat. S over Cat. K” value in experiment [2] is “+ (+, >10)”.
Regarding `CS(=O)(=O)c1ccc(C(=O)N[C@@H](CC2CCCCC2)C(=O)NCCNc2ccc(OC(F)(F)F)cc2)cc1` [Compound 19, N-(S)-{2-cyclohexyl-1-[2-(4-trifluoromethoxy-phenylamino)-ethylcarbamoyl]-ethyl}-4-methanesulfonyl-benzamide], the inhibitory constant (Ki) in experiment [1] is less than 1000 nM. The “Selectivity for Cat. S over Cat. K” value in experiment [2] was “+ (+, >10)”.
Regarding `COc1ccc(NCCNC(=O)[C@H](Cc2ccccc2)NC(=O)c2cc(C)c(OCc3ccccc3)c(C)c2)cc1` [Compound 20, (S)-4-Benzyloxy-N-{1-[2-(4-methoxy-phenylamino)-ethylcarbamoyl]-2-phenyl-ethyl}-3,5-dimethyl-benzamide], in experiment [1], the inhibitory constant (Ki) was less than 1000 nM. The “Selectivity for Cat. S over Cat. K” value in experiment [2] was “++ (++, >100)”.
`COc1ccc(NCCNC(=O)[C@H](Cc2ccccc2)NC(=O)c2cc(C)c(OC)c(C)c2)cc1` [Compound 21, (S)-4-Methoxy-N-{1-[2-(4-methoxy-phenylamino)-ethylcarbamoyl]-2-phenyl-ethyl}-3,5-dimethyl-benzamide]: the inhibition constant (Ki) in experiment [1] is less than 100 nM. In addition, the “Selectivity for Cat. S over Cat. K” value in experiment [2] is “+ (+, >10)”.
Consider `COc1ccc2[nH]c(C(=O)N[C@@H](CC3CCCCC3)C(=O)NCCNc3ccc(OC(F)(F)F)cc3)cc2c1` [Compound 22, 5-Methoxy-1H-indole-2-carboxylic acid (S)-{2-cyclohexyl-1-[2-(4-trifluoromethoxy-phenylamino)-ethylcarbamoyl]-ethyl}-amide], for which the Ki in experiment [1] was less than 1000 nM. In addition, the “Selectivity for Cat. S over Cat. K” value in experiment [2] was “+ (+, >10)”.
For the molecule `O=C(N[C@@H](CC1CCCCC1)C(=O)NCCNc1ccc(OC(F)(F)F)cc1)c1ccoc1` [Compound 26], in experiment [1], the inhibitory constant (Ki) was less than 100 nM. In addition, the “Selectivity for Cat. S over Cat. K” value in experiment [2] is “++ (++, >100)”.
As for `Cc1nc(-c2ccc(C(=O)N[C@@H](CC3CCCCC3)C(=O)NCCNc3ccc(OC(F)(F)F)cc3)cc2)no1` [Compound 27], the inhibitory constant (Ki) in experiment [1] is less than 100 nM. Besides, the “Selectivity for Cat. S over Cat. K” value in experiment [2] was “+++ (+++, >1000)”.
For `Cc1nc(-c2ccc(C(=O)N[C@@H](CC3CCCCC3)C(=O)NCCNc3ccc(OC(F)(F)F)cc3)cc2)no1` [Compound 28], the Ki in experiment [1] was less than 1000 nM. Also, the “Selectivity for Cat. S over Cat. K” value in experiment [2] is “+ (+, >10)”.
Regarding `COc1ccc(NCCNC(=O)[C@H](Cc2ccccc2)NC(=O)c2cc(C)c(C)cc2C)cc1` [Compound 30, (S)-N-{1-[2-(4-Methoxy-phenylamino)-ethylcarbamoyl]-2-phenyl-ethyl}-2,4,5-trimethyl-benzamide], in experiment [1], the Ki was less than 100 nM. Further, in experiment [2], the “Selectivity for Cat. S over Cat. K” value was “+ (+, >10)”.
On to `O=C(N[C@@H](CC1CCCCC1)C(=O)NCCNc1ccc(OC(F)(F)F)cc1)c1ccc(-c2cccc(F)c2)o1` [Compound 31, 5-(3-Fluoro-phenyl)-furan-2-carboxylic acid (S)-{2-cyclohexyl-1-[2-(4-trifluoromethoxy-phenylamino)-ethylcarbamoyl]-ethyl}-amide], for which, in experiment [1], the inhibition constant Ki was less than 100 nM. Moreover, the “Selectivity for Cat. S over Cat. K” value in experiment [2] is reported as “+ (+, >10)”.
Consider `O=C(N[C@@H](CC1CCCCC1)C(=O)NCCNc1ccc(OC(F)(F)F)cc1)C1CN(Cc2ccccc2)CCO1` (stereo partly drawn) [Compound 32, 4-Benzyl-morpholine-2-carboxylic acid (S)-{2-cyclohexyl-1-[2-(4-trifluoromethoxy-phenylamino)-ethylcarbamoyl]-ethyl}-amide], for which, in experiment [1], the Ki is less than 100 nM. Also, the “Selectivity for Cat. S over Cat. K” value in experiment [2] is “+ (+, >10)”.
For the molecule `COc1ccc(NCCNC(=O)[C@H](Cc2ccc(Oc3ccc(N(C)C)cc3)cc2)NC(=O)c2cccc(C)c2)cc1` [Compound 33, (S)-N-{2-[4-(4-Dimethylamino-phenoxy)-phenyl]-1-[2-(4-methoxy-phenylamino)-ethylcarbamoyl]-ethyl}-3-methyl-benzamide], the Ki in experiment [1] was less than 10000 nM. For the same molecule, the “Selectivity for Cat. S over Cat. K” value in experiment [2] is “+ (+, >10)”.
Turning to `O=C(N[C@@H](CC1CCCCC1)C(=O)NCCNc1ccc(OC(F)(F)F)cc1)c1cccc(-c2ccccc2Cl)c1` [Compound 34, 2′-Chloro-biphenyl-3-carboxylic acid (S)-{2-cyclohexyl-1-[2-(4-trifluoromethoxy-phenylamino)-ethylcarbamoyl]-ethyl}-amide], the inhibition constant (Ki) in experiment [1] was less than 100 nM. Also, the “Selectivity for Cat. S over Cat. K” value in experiment [2] was “+++ (+++, >1000)”.
As to `O=C(N[C@@H](CC1CCCCC1)C(=O)NCCNc1ccc(OC(F)(F)F)cc1)c1ccc(-c2ccccc2C(F)(F)F)s1` [Compound 35, 5-(2-Trifluoromethyl-phenyl)-thiophene-2-carboxylic acid (S)-{2-cyclohexyl-1-[2-(4-trifluoromethoxy-phenylamino)-ethylcarbamoyl]-ethyl}-amide], the Ki in experiment [1] is less than 100 nM. In addition, the “Selectivity for Cat. S over Cat. K” value in experiment [2] is “+ (+, >10)”.
For the molecule `O=C(N[C@@H](CC1CCCCC1)C(=O)NCCNc1ccc(OC(F)(F)F)cc1)c1ccc(-c2cccc(F)c2)s1` [Compound 36, 5-(3-Fluoro-phenyl)-thiophene-2-carboxylic acid (S)-{2-cyclohexyl-1-[2-(4-trifluoromethoxy-phenylamino)-ethylcarbamoyl]-ethyl}-amide], in experiment [1], the Ki is less than 100 nM. Moreover, the “Selectivity for Cat. S over Cat. K” value in experiment [2] is given as “++ (++, >100)”.
With `O=C(N[C@@H](CC1CCCCC1)C(=O)NCCNc1ccc(OC(F)(F)F)cc1)c1ccsc1` [Compound 37, Thiophene-3-carboxylic acid (S)-{2-cyclohexyl-1-[2-(4-trifluoromethoxy-phenylamino)-ethylcarbamoyl]-ethyl}-amide], in experiment [1], the Ki was less than 100 nM. Further, in experiment [2], the “Selectivity for Cat. S over Cat. K” value is reported as “++ (++, >100)”.
With `O=C(N[C@@H](CC1CCCCC1)C(=O)NCCNc1ccc(OC(F)(F)F)cc1)C1CC(=O)N(Cc2cccs2)C1` (stereo partly drawn) [Compound 38, 5-Oxo-1-thiophen-2-ylmethyl-pyrrolidine-3-carboxylic acid (S)-{2-cyclohexyl-1-[2-(4-trifluoromethoxy-phenylamino)-ethylcarbamoyl]-ethyl}-amide], in experiment [1], the Ki was less than 100 nM. Besides, the “Selectivity for Cat. S over Cat. K” value in experiment [2] is listed as “++ (++, >100)”.
On to `O=C(N[C@@H](CC1CCCCC1)C(=O)NCCNc1ccc(OC(F)(F)F)cc1)C1CC(=O)N(Cc2ccco2)C1` (stereo partly drawn) [Compound 39, 1-Furan-2-ylmethyl-5-oxo-pyrrolidine-3-carboxylic acid (S)-{2-cyclohexyl-1-[2-(4-trifluoromethoxy-phenylamino)-ethylcarbamoyl]-ethyl}-amide], for which, in experiment [1], the Ki was less than 1000 nM. Moreover, the “Selectivity for Cat. S over Cat. K” value in experiment [2] is “++ (++, >100)”.
In the case of `Cc1oc(S(=O)(=O)N2CCCC2)cc1C(=O)N[C@@H](CC1CCCCC1)C(=O)NCCNc1ccc(OC(F)(F)F)cc1` [Compound 40, 2-Methyl-5-(pyrrolidine-1-sulfonyl)-furan-3-carboxylic acid (S)-{2-cyclohexyl-1-[2-(4-trifluoromethoxy-phenylamino)-ethylcarbamoyl]-ethyl}-amide], in experiment [1], the inhibitory constant (Ki) was less than 1000 nM. Further, in experiment [2], the “Selectivity for Cat. S over Cat. K” value is given as “+ (+, >10)”.
Consider `COc1ccc(NCCNC(=O)[C@H](Cc2ccccc2)NC(=O)c2cnn(-c3ccccc3)c2C(F)(F)F)cc1` [Compound 41, (S)-1-Phenyl-5-trifluoromethyl-1H-pyrazole-4-carboxylic acid {1-[2-(4-methoxy-phenylamino)-ethylcarbamoyl]-2-phenyl-ethyl}-amide], for which, in experiment [1], the inhibition constant Ki is less than 1000 nM. The “Selectivity for Cat. S over Cat. K” value in experiment [2] is listed as “++ (++, >100)”.
